Results as given in paper PMC8957246, “Synthesis and diverse biological activity profile of triethylammonium isatin-3-hydrazones” (ADMET & DMPK, 2022).
Values belong to the compound of their own block, whether it stands above or below them.

Key:
Assay type in all cases: cell-based
[1] = test system: Phytophthora cactorum VKM F-985; experiment: Fungicidal activity, radial growth inhibition, P. cactorum; details: for EC50: Phytophthora cactorum, 168 h, day 7, EC50 = 50C/I, read-out: EC50, μg/mL at day 7
Excerpt: Plant pathogenic bacterial strains Micrococcus luteus B-109, Pectobacterium atrosepticum 1043, Pectobacterium carotovorum subsp. carotovorum MI, Pseudomonas fluorescens EL-2.1, and Xanthomonas campestris B-610 and fungal strain Fusarium oxysporum IBPPM 543 were obtained from the specialized scientific culture collection of IBPPM RAS (WFCC no. 975, WDCM no. 1021) (CM IBPPM). Pathogenic fungus Phytophthora cactorum VKM F-985 provided by the All-Russian Collection of Microorganisms (VKM) and deposited at A.E. Favorsky Irkutsk Institute of Chemistry, SB RAS, was also used as test organism. Bacteria M. luteus, P. carotovorum subsp. carotovorum, P. atrosepticum, and Ps. fluorescens were grown in meat-peptone medium (BP), and X. campestris was grown in the medium with glucose, yeast extract, and calcium carbonate (GYCa). Solid media contained Bacto agar (18 g/L); pH was adjusted to 7.2-7.4. All bacterial cultures were grown at 28°C. The mycelial cultures of F. oxysporum and P. cactorum were grown on a glucose-peptone-yeast (GPY) nutrient medium at 27 °C. For inoculum preparation, both fungal strains were initially grown on the agar GPY in Petri dishes and then transferred into the seed medium by punching out 5 mm of the agar plate culture with a self-designed cutter.
For the fungicidal activity analysis, radial growth (colony diameters) of the fungi on a solid medium in the absence and in the presence of the compounds 3a,c-g solutions at various concentrations were compared. The method consisted of the following: sterile, melted and then cooled to about 60°C GPY agar medium (20.0 ml) was mixed with the precisely measured volumes of the solutions under question, and poured into a sterile Petri dish (90 mm i.d.). After solidification of GPY agar, the media were inoculated by the fungus using 10-day-old cultures of F. oxysporum or P. cactorum. The inoculation was done by transferring a 5-mm (i.d.) GPY-agar block covered with mycelium to the center of the Petri dish followed by incubation in a thermostat at 27°C. The fungicidal effect was scored by the size of mycelium colony on a Petri dish compared to the control without fungicidal admixtures to GPY agar. Each treatment was performed in at least four replicates in two independent experiments. The observation period ended when the control Petri dish was filled with mycelium (usually after 12 days). The inhibition of the phytopathogen colony growth by the compounds 3a,c-g or fludioxonil solutions was calculated as a percentage by which the mycelium radial propagation was decreased compared to the unaffected control, the latter was taken as 100 % of growth (or zero percent of inhibition). The EC50 value was calculated as the compound concentration at which the radial growth of the fungus colony was decreased by 50 % relative to the non-fungicidal control, according to the formula EC50 = 50C/I based on the approach developed e.g., in [34, 35].
The solutions of tested compounds were prepared with a concentration of 2 mmol/l (stock solution). For comparison, test compounds were also commonly applied disinfecting agents and antibiotics.

[2] = test system: Bacillus cereus ATCC 10702 NCTC 8035; experiment: Antimicrobial activity, serial dilution (MIC/MBC), Bc; details: Bacillus cereus; for MIC: read-out: MIC
Protocol: (§1) The antimicrobial activity of the test compounds was determined by the serial dilution technique in Muller Hinton Broth 2 and in Sabouradu broth for fungi. The cultures used for testing included Gram-positive bacteria: Staphylococcus aureus ATCC 6538P FDA 209P, Bacillus cereus ATCC 10702 NCTC 8035, Enterococcus faecalis ATCC 29212; Gram-negative bacteria: Escherichia coli ATCC 25922, Pseudomonas aeruginosa ATCC 9027, and fungi: Trichophyton mentagrophytes var. gypseum 1773, and Candida albicans ATCC 10231; methicillin-resistant strains of S. aureus (MRSA) was obtained from hospital patients with chronic tonsillitis in the Republican Clinical Hospital (Kazan, Russia). The bacterial load was 3.0 × 10^5 cfu/ml. The fungi load was 2.0 × 10^3 cfu/ml. The results were recorded every 24 h for 5-7 days. Cultures were incubated at 37 °C. The experiment was repeated three times. […] The minimum inhibitory concentration (MIC) was defined as the minimum concentration of a compound that inhibits the growth of the corresponding test microorganism. The growth of bacteria, as well as the absence of the growth due to the bacteriostatic action of compounds, were recorded.
(§2) Synthesized compounds were further evaluated for antimicrobial activity against test microorganisms: Staphylococcus aureus ATCC 209p (Sa), Bacillus cereus ATCC 8035 (Bc), Escherichia coli CDC F-50 (Ec), Enterococcus faecalis (Ef), Pseudomonas aeruginosa ATCC 9027, Aspergillus niger BKMF-1119, Trichophyton mentagrophytes var. gypseum 1773, and Candida albicans 855-653 including methicillin-resistant strains of S. aureus (MRSA 1 and MRSA 2). The minimum inhibitory (MIC) and minimum bactericidal (MBC) concentrations of ammonium salts were determined against these pathogens (Table 1). Due to the lack of activity of compounds 3a-g against Gram-negative bacterial strains and some fungi, the corresponding data are not shown.

[3] = test system: Staphylococcus aureus ATCC 6538P FDA 209P; experiment: Antimicrobial activity, serial dilution (MIC/MBC), Sa; details: Staphylococcus aureus; for MBC: read-out: MBC (converted)
Protocol: as §1, §2

- MIC [2]: 52 ± 4.7 µM
- MIC [3]: 6.5 ± 0.5 µM
SMILES: CC[N+](CC)(CC)CC(=O)N/N=C1\C(=O)N(Cc2cc(C(C)(C)C)c(O)c(C(C)(C)C)c2)c2ccccc21 [Compound 3a, 2-(2-(1-(3,5-Di-tert-butyl-4-hydroxybenzyl)-2-oxoindolin-3-ylidene)hydrazinyl)-N,N,N-triethyl-2-oxoethanammonium bromide]
- Inhibition value, I (%) ([1]; C 3.01 μg/mL, age of the fungus 3 days): 4%
- Inhibition value, I (%) ([1]; C 3.01 μg/mL, age of the fungus 5 days): 9%
- Inhibition value, I (%) ([1]; C 3.01 μg/mL, age of the fungus 7 days): 15%
- Inhibition value, I (%) ([1]; C 3.01 μg/mL, age of the fungus 9 days): 1%
- Inhibition value, I (%) ([1]; C 3.01 μg/mL, age of the fungus 12 days): 0%
- Inhibition value, I (%) ([1]; C 6.02 μg/mL, age of the fungus 3 days): 13%
- Inhibition value, I (%) ([1]; C 6.02 μg/mL, age of the fungus 5 days): 21%
- Inhibition value, I (%) ([1]; C 6.02 μg/mL, age of the fungus 7 days): 22%
- Inhibition value, I (%) ([1]; C 6.02 μg/mL, age of the fungus 9 days): 4%
- Inhibition value, I (%) ([1]; C 6.02 μg/mL, age of the fungus 12 days): 5%
- Inhibition value, I (%) ([1]; C 9.03 μg/mL, age of the fungus 3 days): 17%
- Inhibition value, I (%) ([1]; C 9.03 μg/mL, age of the fungus 5 days): 22%
- Inhibition value, I (%) ([1]; C 9.03 μg/mL, age of the fungus 7 days): 25%
- Inhibition value, I (%) ([1]; C 9.03 μg/mL, age of the fungus 9 days): 4%
- Inhibition value, I (%) ([1]; C 9.03 μg/mL, age of the fungus 12 days): 5%
- Inhibition value, I (%) ([1]; C 12.04 μg/mL, age of the fungus 3 days): 40%
- Inhibition value, I (%) ([1]; C 12.04 μg/mL, age of the fungus 5 days): 47%
- Inhibition value, I (%) ([1]; C 12.04 μg/mL, age of the fungus 7 days): 49%
- Inhibition value, I (%) ([1]; C 12.04 μg/mL, age of the fungus 9 days): 41%
- Inhibition value, I (%) ([1]; C 12.04 μg/mL, age of the fungus 12 days): 26%
- EC50 [1]: 10 µg/mL
- MBC [2]: > 500 µM
- MBC [3]: 13 µM

- MIC [2]: 43.7 ± 3.5 µM
- MIC [3]: 11 ± 0.9 µM
SMILES: CC[N+](CC)(CC)CC(=O)N/N=C1\C(=O)N(Cc2cc(C(C)(C)C)c(O)c(C(C)(C)C)c2)c2c(Br)cc(Cl)cc21 [Compound 3g, 2-(2-(1-(3,5-Di-tert-butyl-4-hydroxybenzyl)-5-chloro-7-bromo-2-oxoindolin-3-ylidene)hydrazinyl)-N,N,N-triethyl-2-oxoethanammonium bromide]
- Inhibition value, I (%) ([1]; C 1.43 μg/mL, age of the fungus 3 days): 30%
- Inhibition value, I (%) ([1]; C 1.43 μg/mL, age of the fungus 5 days): 29%
- Inhibition value, I (%) ([1]; C 1.43 μg/mL, age of the fungus 7 days): 15%
- Inhibition value, I (%) ([1]; C 1.43 μg/mL, age of the fungus 9 days): 1%
- Inhibition value, I (%) ([1]; C 1.43 μg/mL, age of the fungus 12 days): 0%
- Inhibition value, I (%) ([1]; C 3.58 μg/mL, age of the fungus 3 days): 38%
- Inhibition value, I (%) ([1]; C 3.58 μg/mL, age of the fungus 5 days): 29%
- Inhibition value, I (%) ([1]; C 3.58 μg/mL, age of the fungus 7 days): 22%
- Inhibition value, I (%) ([1]; C 3.58 μg/mL, age of the fungus 9 days): 5%
- Inhibition value, I (%) ([1]; C 3.58 μg/mL, age of the fungus 12 days): 0%
- Inhibition value, I (%) ([1]; C 7.15 μg/mL, age of the fungus 3 days): 40%
- Inhibition value, I (%) ([1]; C 7.15 μg/mL, age of the fungus 5 days): 33%
- Inhibition value, I (%) ([1]; C 7.15 μg/mL, age of the fungus 7 days): 26%
- Inhibition value, I (%) ([1]; C 7.15 μg/mL, age of the fungus 9 days): 14%
- Inhibition value, I (%) ([1]; C 7.15 μg/mL, age of the fungus 12 days): 11%
- Inhibition value, I (%) ([1]; C 10.73 μg/mL, age of the fungus 3 days): 48%
- Inhibition value, I (%) ([1]; C 10.73 μg/mL, age of the fungus 5 days): 43%
- Inhibition value, I (%) ([1]; C 10.73 μg/mL, age of the fungus 7 days): 41%
- Inhibition value, I (%) ([1]; C 10.73 μg/mL, age of the fungus 9 days): 31%
- Inhibition value, I (%) ([1]; C 10.73 μg/mL, age of the fungus 12 days): 26%
- Inhibition value, I (%) ([1]; C 14.30 μg/mL, age of the fungus 3 days): 51%
- Inhibition value, I (%) ([1]; C 14.30 μg/mL, age of the fungus 5 days): 48%
- Inhibition value, I (%) ([1]; C 14.30 μg/mL, age of the fungus 7 days): 46%
- Inhibition value, I (%) ([1]; C 14.30 μg/mL, age of the fungus 9 days): 41%
- Inhibition value, I (%) ([1]; C 14.30 μg/mL, age of the fungus 12 days): 28%
- EC50 [1]: 4.77 µg/mL
- MBC [2]: 87.4 µM
- MBC [3]: 21.9 µM

- MIC [2]: 71 ± 6.2 µM
- MIC [3]: 8.9 ± 0.7 µM
SMILES: CC[N+](CC)(CC)CC(=O)N/N=C1\C(=O)N(Cc2cc(C(C)(C)C)c(O)c(C(C)(C)C)c2)c2cccc(Br)c21 [Compound 3e, 2-(2-(1-(3,5-Di-tert-butyl-4-hydroxybenzyl)-4-bromo-2-oxoindolin-3-ylidene)hydrazinyl)-N,N,N-triethyl-2-oxoethanammonium bromide]
- Inhibition value, I (%) ([1]; C 1.36 μg/mL, age of the fungus 3 days): 8%
- Inhibition value, I (%) ([1]; C 1.36 μg/mL, age of the fungus 5 days): 14%
- Inhibition value, I (%) ([1]; C 1.36 μg/mL, age of the fungus 7 days): 22%
- Inhibition value, I (%) ([1]; C 1.36 μg/mL, age of the fungus 9 days): 10%
- Inhibition value, I (%) ([1]; C 1.36 μg/mL, age of the fungus 12 days): 3%
- Inhibition value, I (%) ([1]; C 3.41 μg/mL, age of the fungus 3 days): 13%
- Inhibition value, I (%) ([1]; C 3.41 μg/mL, age of the fungus 5 days): 21%
- Inhibition value, I (%) ([1]; C 3.41 μg/mL, age of the fungus 7 days): 34%
- Inhibition value, I (%) ([1]; C 3.41 μg/mL, age of the fungus 9 days): 12%
- Inhibition value, I (%) ([1]; C 3.41 μg/mL, age of the fungus 12 days): 5%
- Inhibition value, I (%) ([1]; C 6.81 μg/mL, age of the fungus 3 days): 17%
- Inhibition value, I (%) ([1]; C 6.81 μg/mL, age of the fungus 5 days): 33%
- Inhibition value, I (%) ([1]; C 6.81 μg/mL, age of the fungus 7 days): 38%
- Inhibition value, I (%) ([1]; C 6.81 μg/mL, age of the fungus 9 days): 16%
- Inhibition value, I (%) ([1]; C 6.81 μg/mL, age of the fungus 12 days): 7%
- Inhibition value, I (%) ([1]; C 10.22 μg/mL, age of the fungus 3 days): 39%
- Inhibition value, I (%) ([1]; C 10.22 μg/mL, age of the fungus 5 days): 40%
- Inhibition value, I (%) ([1]; C 10.22 μg/mL, age of the fungus 7 days): 53%
- Inhibition value, I (%) ([1]; C 10.22 μg/mL, age of the fungus 9 days): 28%
- Inhibition value, I (%) ([1]; C 10.22 μg/mL, age of the fungus 12 days): 18%
- Inhibition value, I (%) ([1]; C 13.62 μg/mL, age of the fungus 3 days): 45%
- Inhibition value, I (%) ([1]; C 13.62 μg/mL, age of the fungus 5 days): 62%
- Inhibition value, I (%) ([1]; C 13.62 μg/mL, age of the fungus 7 days): 72%
- Inhibition value, I (%) ([1]; C 13.62 μg/mL, age of the fungus 9 days): 70%
- Inhibition value, I (%) ([1]; C 13.62 μg/mL, age of the fungus 12 days): 66%
- EC50 [1]: 3.1 µg/mL
- MBC [2]: 284 µM
- MBC [3]: 17.7 µM
